Reference: ChEMBL document CHEMBL3045787, “Synthesis of novel 1,4-naphthoquinone derivatives: antibacterial and antifungal agents” (2013)
Values after ≈ are worked out from the molar mass of the structure shown. Active and inactive are the calls of the source. The rule behind the calls is not given here.

Legend:
[1] = system: Mycobacterium; assay: Antibacterial activity against Mycobacterium luteum B-917 assessed as growth inhibition after 24 to 72 hr by serial dilution method; format: functional
[2] = system: Mycobacterium; assay: Antibacterial activity against Mycobacterium luteum B-917 assessed as growth inhibition at 0.5% after 24 hr by agar disk diffusion method; format: functional
[3] = system: Aspergillus niger; assay: Antifungal activity against Aspergillus niger assessed as growth inhibition at 0.1% after 48 to 72 hr by agar disk diffusion method; format: functional
[4] = system: Escherichia coli; assay: Antibacterial activity against Escherichia coli B 906 assessed as growth inhibition after 24 to 72 hr by serial dilution method; format: functional, organism-based
[5] = system: Staphylococcus aureus; assay: Antibacterial activity against Staphylococcus aureus 209-P assessed as growth inhibition at 0.5% after 24 hr by agar disk diffusion method; format: functional
[6] = system: Staphylococcus aureus; assay: Antibacterial activity against Staphylococcus aureus 209-P assessed as growth inhibition after 24 to 72 hr by serial dilution method; format: functional
[7] = system: Aspergillus niger; assay: Antifungal activity against Aspergillus niger assessed as growth inhibition at 0.5% after 48 to 72 hr by agar disk diffusion method; format: functional
[8] = system: Yamadazyma tenuis; assay: Antifungal activity against Candida tenuis assessed as growth inhibition at 0.1% after 48 to 72 hr by agar disk diffusion method; format: functional
[9] = system: Staphylococcus aureus; assay: Antibacterial activity against Staphylococcus aureus 209-P assessed as growth inhibition at 0.1% after 24 hr by agar disk diffusion method; format: functional
[10] = system: Yamadazyma tenuis; assay: Antifungal activity against Candida tenuis assessed as growth inhibition at 0.5% after 48 to 72 hr by agar disk diffusion method; format: functional
[11] = system: Aspergillus niger; assay: Antifungal activity against Aspergillus niger assessed as growth inhibition after 24 to 72 hr by serial dilution method; format: functional
[12] = system: Mycobacterium; assay: Antibacterial activity against Mycobacterium luteum B-917 assessed as growth inhibition at 0.1% after 24 hr by agar disk diffusion method; format: functional
[13] = system: Escherichia coli; assay: Antibacterial activity against Escherichia coli B 906 assessed as growth inhibition at 0.5% after 24 hr by agar disk diffusion method; format: functional
[14] = system: Escherichia coli; assay: Antibacterial activity against Escherichia coli B 906 assessed as growth inhibition at 0.1% after 24 hr by agar disk diffusion method; format: functional
[15] = system: Yamadazyma tenuis; assay: Antifungal activity against Candida tenuis assessed as growth inhibition after 24 to 72 hr by serial dilution method; format: functional

| Compound | MIC [1] | diameter of the inhibition zone (DIZ) [2] [mm] | diameter of the inhibition zone (DIZ) [3] [mm] | MIC [4] | diameter of the inhibition zone (DIZ) [5] [mm] | MIC [6] | diameter of the inhibition zone (DIZ) [7] [mm] | diameter of the inhibition zone (DIZ) [8] [mm] | diameter of the inhibition zone (DIZ) [9] [mm] | diameter of the inhibition zone (DIZ) [10] [mm] | MIC [11] | diameter of the inhibition zone (DIZ) [12] [mm] | diameter of the inhibition zone (DIZ) [13] [mm] | diameter of the inhibition zone (DIZ) [14] [mm] | MIC [15] | inhibition zone (IZ) [3] [mm] | inhibition zone (IZ) [8] [mm] |
| --- | --- | --- | --- | --- | --- | --- | --- | --- | --- | --- | --- | --- | --- | --- | --- | --- | --- |
| CCOC1=C(Sc2ccc(O)cc2)C(=O)c2ccccc2C1=O | 125 µg/mL (≈ 383 µM) | 0 | 0 | inactive | 0 | inactive | 0 | 0 | 0 | 0 | 15.6 µg/mL (≈ 47.8 µM) | 0 | 0 | 0 | 31.2 µg/mL (≈ 95.6 µM) |  |  |
| O=C1C(SCc2ccc(Cl)cc2)=C(N2CCN(c3ccccc3F)CC2)C(=O)c2ccccc21 | inactive | 0 | 0 | inactive | 0 | inactive | 0 | 0 | 0 | 0 | inactive | 0 | 0 | 0 | inactive |  |  |
| O=C1C(Sc2ccc(O)cc2)=C(Sc2ccc(O)cc2)C(=O)c2ccccc21 | 250 µg/mL (≈ 615 µM) | 12.7 | 0 | inactive | 9.7 | 125 µg/mL (≈ 308 µM) | 8 | 0 | 6 | 0 | 7.8 µg/mL (≈ 19.2 µM) | 7 | 0 | 0 | 7.8 µg/mL (≈ 19.2 µM) |  |  |
| O=C1C(SCc2ccc(Cl)cc2)=C(N2CCCC2)C(=O)c2ccccc21 | 125 µg/mL (≈ 326 µM) | 14.4 | 0 | inactive | 0 | 250 µg/mL (≈ 651 µM) | 0 | 0 | 0 | 0 | 15.6 µg/mL (≈ 40.6 µM) | 8.7 | 0 | 0 | 7.8 µg/mL (≈ 20.3 µM) |  |  |
| NYSTATIN |  |  |  |  |  |  |  |  |  |  |  |  |  |  |  | 20 | 19 |
| O=C1C2=C(SCCCCSC3=C(SCCCCS2)C(=O)c2ccccc2C3=O)C(=O)c2ccccc21 | 1.9 µg/mL (≈ 3.44 µM) | 25.4 | 16.4 | inactive | 12 | 500 µg/mL (≈ 905 µM) | 19.4 | 9.7 | 10.4 | 11.4 | 15.6 µg/mL (≈ 28.2 µM) | 21.4 | 0 | 0 | 3.9 µg/mL (≈ 7.06 µM) |  |  |
| O=C1C(Cl)=C(N2CCC(C(O)(c3ccccc3)c3ccccc3)CC2)C(=O)c2ccccc21 | inactive | 9 | 0 | inactive | 0 | inactive | 0 | 0 | 0 | 0 | inactive | 7.5 | 0 | 0 | inactive |  |  |
| COC(=O)CCSC1=C(SCCC(=O)OC)C(=O)c2ccccc2C1=O | 7.8 µg/mL (≈ 19.8 µM) | 19.7 | 12.4 | inactive | 13.4 | 250 µg/mL (≈ 634 µM) | 14.7 | 10 | 10 | 15 | 15.6 µg/mL (≈ 39.5 µM) | 15.4 | 0 | 0 | 15.6 µg/mL (≈ 39.5 µM) |  |  |
| O=C1C(SCc2ccc(Cl)cc2)=C(N2CCC(C(O)(c3ccccc3)c3ccccc3)CC2)C(=O)c2ccccc21 | inactive | 0 | 0 | inactive | 0 | inactive | 0 | 0 | 0 | 0 | 31.2 µg/mL (≈ 53.8 µM) | 0 | 0 | 0 | 7.8 µg/mL (≈ 13.4 µM) |  |  |
| O=C1C(SCc2ccc(Cl)cc2)=C(N2CCOCC2)C(=O)c2ccccc21 | inactive | 8 | 0 | inactive | 0 | inactive | 0 | 0 | 0 | 0 | inactive | 7 | 0 | 0 | inactive |  |  |
| COC(=O)CCSC1=C(Cl)C(=O)c2ccccc2C1=O | 7.8 µg/mL (≈ 25.1 µM) | 18 | 11 | inactive | 8 | inactive | 10.4 | 12.4 | 6 | 13 | 7.8 µg/mL (≈ 25.1 µM) | 9 | 0 | 0 | 1.9 µg/mL (≈ 6.11 µM) |  |  |
| O=C1C(SCCOc2ccccc2)=C(SCCOc2ccccc2)C(=O)c2ccccc21 | inactive | 8 | 0 | inactive | 0 | inactive | 0 | 0 | 0 | 0 | 7.8 µg/mL (≈ 16.9 µM) | 0 | 0 | 0 | 125 µg/mL (≈ 270 µM) |  |  |
| O=C1C(Cl)=C(Sc2c(Cl)c(Cl)c(Cl)c(Cl)c2Cl)C(=O)c2ccccc21 | inactive | 0 | 0 | inactive | 0 | inactive | 0 | 0 | 0 | 0 | 250 µg/mL (≈ 529 µM) | 0 | 0 | 0 | 125 µg/mL (≈ 264 µM) |  |  |
| CN[C@H](CC(C)C)C(=O)N[C@H]1C(=O)N[C@@H](CC(N)=O)C(=O)N[C@H]2C(=O)N[C@H]3C(=O)N[C@H](C(=O)N[C@H](C(=O)O)c4cc(O)cc(O)c4-c4cc3ccc4O)[C@H](O)c3ccc(c(Cl)c3)Oc3cc2cc(c3O[C@@H]2O[C@H](CO)[C@@H](O)[C@H](O)[C@H]2O[C@H]2C[C@](C)(N)[C@H](O)[C@H](C)O2)Oc2ccc(cc2Cl)[C@H]1O [VANCOMYCIN] |  |  |  |  |  |  |  |  | 15 |  |  | 18 |  | 14 |  |  |  |
| O=C1C(SCc2ccc(Cl)cc2)=C(N2CCCCC2)C(=O)c2ccccc21 | 250 µg/mL (≈ 628 µM) | 9 | 0 | inactive | 0 | inactive | 0 | 0 | 0 | 0 | inactive | 0 | 0 | 0 | inactive |  |  |
